Reference: patent US10646460B2, “Pharmaceutical composition for inhibiting growth of cancer stem cells, containing aldehyde inhibitor and biguanide-based compound” (NATIONAL CANCER CENTER, priority 2015, dated 2020)

How the values were obtained:
U87 cells (GBM cells) = test: MTT assay of cell viability following treatment with gossypol; type: cell-based; settings: 0.5, 1, 5, 10 and 50 μM gossypol, 72 hours, FIG. 1
Method: U87 cells (GBM cells) were treated with 0.5, 1, 5, 10 and 50 μM of gossypol for 72 hours (FIG. 1).

U87 neurosphere cells = test: Analysis of formation of neurospheres; type: cell-based; settings: 1 μM gossypol, 10 μM phenformin or mixture, 3 weeks, FIG. 3
Method: U87 cells were cultured in DMEM/F-12 medium containing 2 wt % 1×B27, 0.02 wt % bFGF (20 ng/ml), 0.02 wt % EGF (20 ng/ml) and 50 U/ml penicillin-[…] (100×, Gibco, Invitrogen Korea, Seoul, South Korea) to form tumor spheres. Next, the cells were seeded onto a 96-well plate at a density of 10 cells/well and treated with each of 1 μM gossypol, 10 μM phenformin and a mixture of 1 μM gossypol and 10 μM phenformin. Then, the cells were cultured at 37° C. for 3 weeks.
In FIG. 4, the percent change in the radius of the neurospheres is expressed as the percentage of the average radius of the neurospheres after each treatment relative to the average radius of the neurospheres seeded onto the 96-well plate, and in FIG. 5, the degree of neurosphere formation is expressed as the percentage of the number of the neurosphere cells after each treatment relative to the number of the neurosphere cells seeded onto the 96-well plate.

U87-luc cells = test: Orthotopic xenograft model (U87-luc cells transplanted into the cerebrum), bioluminescence and survival; type: in vivo, male athymic nude mice; settings: 5 weeks after transplantation; oral gossypol 40 mg/kg and/or phenformin 100 mg/kg each day, FIG. 7
Method: Gossypol and phenformin to be used in an animal study were dissolved in DMSO and PBS, respectively. A composition for co-administration of gossypol and phenformin was dissolved in PBS containing 10 wt % DMSO and 10 wt % cremophor.
For preparation of orthotopic xenograft models, 4-8-week-old male athymic nude mice (Central Lab., Korea) were used. For stabilization, the mice were maintained in a sterilized environment for at least one week before use in the experiment while they were fed with a sufficient diet. […] First, the mice were anesthetized by intraperitoneal injection of 30 mg/kg of Zoletil and 10 mg/kg of Xylazine, and 2×10^5 U87-luc cells were transplanted into the right frontal lobe of the cerebrum to a depth of 4.5 mm by use of a Hamilton syringe. The U87-luci cells were injected into five mice of the same group at the same time at a rate of 0.5 l/minute by use of a micro-infusion syringe pump. Thereafter, the mice were administered orally with gossypol (40 mg/kg) and/or phenformin (100 mg/kg) each day.
An increase or decrease in the body weight was checked each day, and when a mouse whose body weight decreased by 15 wt % compared to the body weight before the start of the experiment, the mouse was euthanized according to the approved protocol. […]

SMILES | growth of the cells (MTT assay) (U87 cells (GBM cells)) | size of neurosphere cells / presence in cell photographs (U87 neurosphere cells) | degree of occurrence of brain cancer (bioluminescence signal) (U87-luc cells)
Cc1cc2c(C(C)C)c(O)c(O)c(C=O)c2c(O)c1-c1c(C)cc2c(C(C)C)c(O)c(O)c(C=O)c2c1O [gossypol] | growth of the cells was inhibited | the size of the neurosphere cells decreased | fluorescence was observed
NC(N)=N/C(N)=N/CCc1ccccc1 [phenformin] |  | the size of the neurosphere cells decreased | fluorescence was observed
